Reference: patent EP0928340B1, “INVASION-INHIBITORS FOR USE IN WOUND HEALING AND CANCER” (THE REGENTS OF THE UNIVERSITY OF MICHIGAN, priority 1996, dated 2009)
Where two headings read alike, the source gives them in different places.

Key:
[1] = tested on: DU-145 prostate cancer cells; experiment: SU-ECM in vitro invasion assay, human prostate cancer cells; type: cell-based; details: for IC100: Homo sapiens, DU-145, read-out: concentration that completely (fully) inhibits invasion
Experimental: Adult Strongylocentrotus purpuratus sea urchins were obtained from Pacific BioMarine, and their embryos were cultured to the early pluteus stage in artificial sea water at 15°C. SU-ECM were prepared from them by treatment with nonionic detergent and strerilized by dilution in the appropriate media.
[…] When appropriate, purified bovine plasma fibronectin (Sigma), purified 120 kDa chymotryptic fragment (Gibco BRL). PHSRN or PHSCN peptides (synthesized at the Biomedical Research Core Facilities of the University of Michigan), or GRGDSP or GRGESP peptides (Gibco BRL) were added to the resuspended cells prior to placement of the cells on SU-ECM. In each well of a plate used for an invasion assay, SU-ECM were placed in 0.5 ml of the appropriate medium, and 0.5ml of the resuspended cells dropped on their exterior surfaces. Invasion assays were incubated 1 to 16 hours prior to assay. If some circumstances, invasion assays were fixed in phosphate-buffered saline (PBS) with 2% formaldehyde for 5 minutes at room temperature, then rinsed into PBS.
Invasion assays were coded and scored blindly by microscopic examination under phase contrast at 200- and 400-fold magnification. Each cell contacting an SU-ECM was scored for its position relative to the exterior or interior surfaces. A cell was judged to have invaded if it was located on an interior surface below the focal plane passing through the upper surface of the SU-ECM, but above the focal plane passing through its lower surface. The minimum viability of the cells in each assay was always ascertained at the time of assay by determining the fraction of spread, adherent cells on the bottom of each well scored.
An invasion frequency is defined as the fraction of cells in contact with basement membranes which were located in their interiors at the time of assay. Thus, an invasion frequency of 1 denotes invasion by 100% of the cells in contact with basement membranes. Invasion frequencies were determined multiple times for each cell type assayed. For each type of cell assayed the mean and standard deviation of the invasion frequencies were calculated.
The method of Example 4 is employed, with the addition of varying concentrations of the PHSCN peptide.
Thus, the procedure in Example 4 provides a method for determining the inhibitory potential of the PHSCN peptide by comparing the number of cell invasions in the presence of the PHSCN peptide, with the number of cell invasions in the absence of the PHSCN peptide.
In this example, in vitro invasion of cancer cells into substrates is inhibited with peptides that have been chemically modified with protecting groups and peptides having protecting groups as well as the modification wherein an L-amino acid has been replaced with the D-isomer. PHSCN peptide, blocked PHSCN peptide, and blocked PHSCN peptide with a D-cysteine instead of the L-isomer, were tested (Figure 11).
In this example, in vitro invasion of cancer cells into substrates is inhibited with non-peptide mimetics in comparison with chemically modified peptides (on a molar basis). The peptides of Example 14 (i.e. peptides chemically modified with protecting groups and peptides having protecting groups as well as the modification wherein an L-amino acid has been replaced with the D-isomer) were compared with the non-peptide mimetics DL-N-Acetylhomocysteinethiolactone, Thiobutyrolactone, and Mercaptopropionic acid, in order to investigate the structure activity relationship for invasion inhibition by interaction with the PHSRN-binding pocket of the α5β1 fibronectin receptor (Figure 12)

[2] = molecular target: α5β1 integrin fibronectin receptor (human) (UniProt P08648); experiment: cell-based or functional assay
Sequence of UniProt P08648 (P08648 42-1049, chain 1 of 2): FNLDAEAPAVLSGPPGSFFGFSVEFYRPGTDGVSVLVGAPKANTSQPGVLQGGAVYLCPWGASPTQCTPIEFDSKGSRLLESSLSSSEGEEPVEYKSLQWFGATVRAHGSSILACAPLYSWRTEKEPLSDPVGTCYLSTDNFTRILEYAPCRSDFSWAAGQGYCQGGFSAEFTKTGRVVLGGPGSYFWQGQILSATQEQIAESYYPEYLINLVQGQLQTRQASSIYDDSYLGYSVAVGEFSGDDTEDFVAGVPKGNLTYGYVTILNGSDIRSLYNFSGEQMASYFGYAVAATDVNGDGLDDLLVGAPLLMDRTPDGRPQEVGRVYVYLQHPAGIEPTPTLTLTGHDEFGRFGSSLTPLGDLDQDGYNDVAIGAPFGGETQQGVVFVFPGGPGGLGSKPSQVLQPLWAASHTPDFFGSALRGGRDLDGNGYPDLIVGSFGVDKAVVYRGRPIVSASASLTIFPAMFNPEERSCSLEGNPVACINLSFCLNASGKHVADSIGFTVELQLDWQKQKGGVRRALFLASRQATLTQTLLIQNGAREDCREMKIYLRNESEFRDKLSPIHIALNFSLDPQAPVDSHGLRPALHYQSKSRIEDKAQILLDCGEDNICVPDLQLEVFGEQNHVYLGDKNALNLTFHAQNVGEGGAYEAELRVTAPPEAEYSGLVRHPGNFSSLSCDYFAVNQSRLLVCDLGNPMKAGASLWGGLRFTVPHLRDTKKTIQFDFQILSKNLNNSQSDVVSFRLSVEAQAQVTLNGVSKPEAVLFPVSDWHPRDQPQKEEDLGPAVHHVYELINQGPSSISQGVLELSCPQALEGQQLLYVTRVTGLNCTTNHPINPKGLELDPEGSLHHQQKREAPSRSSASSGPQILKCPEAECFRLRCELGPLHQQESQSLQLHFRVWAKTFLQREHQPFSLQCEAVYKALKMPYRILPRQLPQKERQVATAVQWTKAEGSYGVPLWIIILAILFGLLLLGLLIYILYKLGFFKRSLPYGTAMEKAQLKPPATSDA
Sequence of UniProt P08648 (P05556 21-798, chain 2 of 2, further chain): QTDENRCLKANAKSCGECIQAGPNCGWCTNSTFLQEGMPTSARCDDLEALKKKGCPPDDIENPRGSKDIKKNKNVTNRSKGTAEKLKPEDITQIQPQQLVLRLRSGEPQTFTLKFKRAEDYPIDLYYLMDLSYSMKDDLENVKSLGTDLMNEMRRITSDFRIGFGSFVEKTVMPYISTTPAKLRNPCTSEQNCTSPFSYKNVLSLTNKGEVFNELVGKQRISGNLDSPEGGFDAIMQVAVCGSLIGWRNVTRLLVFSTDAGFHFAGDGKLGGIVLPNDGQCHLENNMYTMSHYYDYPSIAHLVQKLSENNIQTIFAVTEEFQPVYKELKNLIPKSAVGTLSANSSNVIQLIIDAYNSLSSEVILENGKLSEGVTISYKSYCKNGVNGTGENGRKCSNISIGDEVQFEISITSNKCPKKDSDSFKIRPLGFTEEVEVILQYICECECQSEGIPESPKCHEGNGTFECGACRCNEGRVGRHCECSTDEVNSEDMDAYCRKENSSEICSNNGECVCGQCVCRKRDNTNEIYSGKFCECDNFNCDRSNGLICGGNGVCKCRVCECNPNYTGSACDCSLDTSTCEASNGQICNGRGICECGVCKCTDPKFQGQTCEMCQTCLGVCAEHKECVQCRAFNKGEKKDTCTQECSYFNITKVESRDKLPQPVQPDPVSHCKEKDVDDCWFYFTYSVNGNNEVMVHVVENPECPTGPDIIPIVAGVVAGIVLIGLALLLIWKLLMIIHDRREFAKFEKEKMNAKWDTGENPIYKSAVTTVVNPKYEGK

[3] = molecular target: α5β1 integrin fibronectin receptor (human) (UniProt P08648); experiment: cell-based or functional assay; remark: listed apart in the source
[4] = invasion inhibition, molar basis (Figure 12)

| concentration giving complete inhibition of invasion of metastatic DU145 cells into SU-ECM in medium with 10% serum [2] [ng/mL] | concentration giving complete inhibition of invasion of metastatic DU145 cells into SU-ECM in medium with 10% serum [3] [µM] | Compound | IC100 [1] [µM] | less active than blocked PHSCN [1, 4] | less active than the unblocked PHSCN peptide [1, 4] [times] | further results |
| --- | --- | --- | --- | --- | --- | --- |
|  |  | CC(=O)NC1CCSC1=O (racemic) [DL-N-Acetylhomocysteinethiolactone] | 0.6 | about 10 fold |  | more active than the unblocked PHSCN peptide [1, 4]: about 3 fold |
|  |  | O=C(O)CCS [Mercaptopropionic acid] |  |  | 1500 | reduction of DU145 invasion ([1]; at any of the concentrations tested, medium with 10% serum (Figure 12)): ≤ 20%; less active in invasion inhibition than thiobutyrolactone [1, 4]: at least 100 times |
|  |  | O=C1CCCS1 [Thiobutyrolactone] | 30 | about 500 fold | 15 | less active than N-acetylhomocysteinethiolactone [1, 4]: 50 fold |
|  |  | Ac-PHSCN-NH2 [Ac-PHSCN-NH2] |  |  |  | concentration that completely inhibits invasion ([1]; medium with 10% serum (Example 14, Figure 11)): approximately 1.3 ng/ml; concentration that completely (fully) inhibits invasion ([1]; medium with 10% serum (Example 15, Figure 12)): approximately 0.06 µM |
| 1.3 | 0.06 | Ac-PHSCN-NH2 peptide |  |  |  |  |
| 3 | 2 | PHSCN peptide |  |  |  |  |
